Read-outs that look alike come from different tables or passages of the source. Some results are limits rather than exact numbers.

Data on 15 compounds can be found in patent US20250235543A1, “MODIFIED PROTEINS AND PROTEIN DEGRADERS” (Cullgen (Shanghai), Inc., priority 2021, published 2025).

The target of one experiment is T1, CDK4 (Homo sapiens, UniProt P11802).
T1 construct: endogenous in cells; host or cells: Calu-1
In words: CDK4 percentage degradation in Calu-1 cells (immunoblotting). The format is cell-based. The conditions noted are these: for inhibition at 0.2 µM: read-out: CDK4 Degradation (200 nM). An outline of the steps:
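CDK4 degradation was measured by immunoblotting. Cells were washed in cold PBS and lysed in RIPA buffer with inhibitors for 30 min at 4° C., then spun at 13,000 rpm to clear. After BCA protein determination, lysates were heated at 99° C. for 5 min in Laemmli buffer, resolved on SDS-PAGE, imaged on a ChemiDoc MP with ECL substrate, and band intensities quantified.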

The test system of another experiment is cyclin D1. Nature of the experiment: Cyclin D1 percentage degradation in Calu-1 cells (immunoblotting). Particulars: 16 hours. The format is cell-based. An outline of the steps:
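Cyclin D1 degradation was assessed by western blot. Clarified lysates, obtained by RIPA lysis with inhibitors and centrifugation at 13,000 rpm, were normalized by BCA protein assay and separated by SDS-PAGE. Bands were detected with Western ECL Substrate on a Bio-Rad ChemiDoc MP Imaging system and quantified in Image Lab software to derive percentage degradation.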
(A western blot detects proteins with antibodies after separation by electrophoresis.)

T1 sequence (P11802 2-303 limits assumed): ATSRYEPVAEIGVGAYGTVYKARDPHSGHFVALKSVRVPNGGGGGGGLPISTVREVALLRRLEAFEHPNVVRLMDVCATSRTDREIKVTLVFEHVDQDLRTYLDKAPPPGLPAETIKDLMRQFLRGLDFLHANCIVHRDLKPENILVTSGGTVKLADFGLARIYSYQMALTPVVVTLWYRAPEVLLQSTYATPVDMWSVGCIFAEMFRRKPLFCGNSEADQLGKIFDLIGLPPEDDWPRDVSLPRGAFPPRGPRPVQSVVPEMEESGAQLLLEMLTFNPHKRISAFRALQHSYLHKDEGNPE
T1 sequence (P24385 whole entry partner): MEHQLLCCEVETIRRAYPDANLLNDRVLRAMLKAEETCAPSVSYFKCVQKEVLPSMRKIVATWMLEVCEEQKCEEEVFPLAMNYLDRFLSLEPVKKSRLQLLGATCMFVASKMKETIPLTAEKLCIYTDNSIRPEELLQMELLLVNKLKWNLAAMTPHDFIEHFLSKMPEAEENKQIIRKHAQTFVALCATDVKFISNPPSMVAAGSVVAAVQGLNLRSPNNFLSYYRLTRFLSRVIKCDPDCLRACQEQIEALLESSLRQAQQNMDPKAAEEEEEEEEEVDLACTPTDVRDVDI
T1 sequence (Q16531 2-1140 limits assumed, further chain): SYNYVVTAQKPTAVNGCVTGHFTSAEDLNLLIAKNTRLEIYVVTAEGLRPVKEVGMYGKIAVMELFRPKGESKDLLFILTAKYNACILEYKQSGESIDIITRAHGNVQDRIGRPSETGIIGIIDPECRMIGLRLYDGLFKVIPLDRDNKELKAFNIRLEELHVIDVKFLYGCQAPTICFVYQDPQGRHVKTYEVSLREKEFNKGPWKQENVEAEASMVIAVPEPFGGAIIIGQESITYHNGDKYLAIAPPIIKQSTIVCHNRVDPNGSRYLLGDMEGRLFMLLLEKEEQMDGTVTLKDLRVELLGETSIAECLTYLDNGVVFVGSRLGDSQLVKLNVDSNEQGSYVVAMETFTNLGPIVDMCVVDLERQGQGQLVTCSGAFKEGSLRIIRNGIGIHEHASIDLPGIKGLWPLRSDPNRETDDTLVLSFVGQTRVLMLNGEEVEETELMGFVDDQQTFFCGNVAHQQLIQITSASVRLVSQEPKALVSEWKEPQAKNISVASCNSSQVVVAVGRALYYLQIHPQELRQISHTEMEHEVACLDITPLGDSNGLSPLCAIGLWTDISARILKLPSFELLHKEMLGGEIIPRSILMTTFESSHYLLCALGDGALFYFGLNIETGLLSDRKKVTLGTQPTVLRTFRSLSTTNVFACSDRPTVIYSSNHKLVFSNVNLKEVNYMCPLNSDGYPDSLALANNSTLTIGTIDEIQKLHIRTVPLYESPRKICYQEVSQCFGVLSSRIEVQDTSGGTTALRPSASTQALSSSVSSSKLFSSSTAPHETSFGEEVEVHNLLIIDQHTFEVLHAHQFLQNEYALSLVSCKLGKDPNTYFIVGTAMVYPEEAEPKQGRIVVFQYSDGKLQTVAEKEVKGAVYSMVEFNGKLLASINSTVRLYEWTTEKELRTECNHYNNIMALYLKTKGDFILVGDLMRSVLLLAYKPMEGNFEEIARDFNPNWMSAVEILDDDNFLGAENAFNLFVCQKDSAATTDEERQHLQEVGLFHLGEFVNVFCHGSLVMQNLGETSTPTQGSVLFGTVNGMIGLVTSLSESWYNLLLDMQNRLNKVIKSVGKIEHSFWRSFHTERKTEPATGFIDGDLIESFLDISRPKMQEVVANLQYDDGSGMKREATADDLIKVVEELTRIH

With `CC(=O)c1c(C)c2cnc(Nc3ccc(N4CCN(CC(=O)NCCOCCC(=O)Nc5ccccc5C(=O)Nc5nc(C)c(C)s5)CC4)cn3)nc2n(C2CCCC2)c1=O` [CPD-147, 2-(3-(2-(2-(4-(6-((6-Acetyl-8-cyclopentyl-5-methyl-7-oxo-7,8-dihydropyrido[2,3-d]pyrimidin-2-yl)amino)pyridin-3-yl)piperazin-1-yl)acetamido)ethoxy)propanamido)-N-(4,5-dimethylthiazol-2-yl)benzamide], the inhibition at 0.2 µM at CDK4 (Calu-1 cells, 200 nM, 16 hours) was below 30%. In addition, in the experiment on cyclin D1, the “CyclinD1 Degradation (200 nM)” value was “D (protein percentage degradation <30%)”.

In the case of `CC(=O)c1c(C)c2cnc(Nc3ccc(N4CCN(CC(=O)NCCOCCOCCOCCNC(=O)c5ccc(C(=O)Nc6ncc(C)s6)c(C)c5)CC4)cn3)nc2n(C2CCCC2)c1=O` [CPD-011, N^4-(1-(4-(6-((6-Acetyl-8-cyclopentyl-5-methyl-7-oxo-7,8-dihydropyrido[2,3-d]pyrimidin-2-yl)amino)pyridin-3-yl)piperazin-1-yl)-2-oxo-6,9,12-trioxa-3-azatetradecan-14-yl)-2-methyl-N^1-(5-methylthiazol-2-yl)terephthalamide], on CDK4 (Calu-1 cells, 200 nM, 16 hours), the inhibition at 0.2 µM is below 30%. Moreover, in the experiment with cyclin D1, the “CyclinD1 Degradation (200 nM)” value is given as “D (protein percentage degradation <30%)”.

In the case of `CC(=O)c1c(C)c2cnc(Nc3ccc(N4CCN(CC(=O)NCCCCCCCNc5cccc(C(=O)Nc6nc(C)c(C)s6)c5C)CC4)cn3)nc2n(C2CCCC2)c1=O` [CPD-102, 3-((7-(2-(4-(6-((6-Acetyl-8-cyclopentyl-5-methyl-7-oxo-7,8-dihydropyrido[2,3-d]pyrimidin-2-yl)amino)pyridin-3-yl)piperazin-1-yl)acetamido)heptyl)amino)-N-(4,5-dimethylthiazol-2-yl)-2-methylbenzamide], the inhibition at 0.2 µM on CDK4 (Calu-1 cells, 200 nM, 16 hours) is 50 to 80%. In addition, the “CyclinD1 Degradation (200 nM)” value in the experiment with cyclin D1 was “A (protein percentage degradation >=80%)”.

As to `CC(=O)c1c(C)c2cnc(Nc3ccc(N4CCN(CCNCCCCCCCNc5cccc(C(=O)Nc6nc(C)c(C)s6)c5C)CC4)cn3)nc2n(C2CCCC2)c1=O` [CPD-188, 3-((7-((2-(4-(6-((6-Acetyl-8-cyclopentyl-5-methyl-7-oxo-7,8-dihydropyrido[2,3-d]pyrimidin-2-yl)amino)pyridin-3-yl)piperazin-1-yl)ethyl)amino)heptyl)amino)-N-(4,5-dimethylthiazol-2-yl)-2-methylbenzamide], the inhibition at 0.2 µM at CDK4 (Calu-1, 16 h) was below 30%. Moreover, the “CyclinD1 Degradation (200 nM)” value in the experiment on cyclin D1 was “D (protein percentage degradation <30%)”.

With `CC(=O)c1c(C)c2cnc(Nc3ccc(N4CCN(CC(=O)NCCOCCOCCC(=O)Nc5ccccc5C(=O)Nc5ccccn5)CC4)cn3)nc2n(C2CCCC2)c1=O` [CPD-053, 2-(3-(2-(2-(2-(4-(6-((6-Acetyl-8-cyclopentyl-5-methyl-7-oxo-7,8-dihydropyrido[2,3-d]pyrimidin-2-yl)amino)pyridin-3-yl)piperazin-1-yl)acetamido)ethoxy)ethoxy)propanamido)-N-(pyridin-2-yl)benzamide], on CDK4 (Calu-1 cells, 200 nM, 16 hours), the inhibition at 0.2 µM lay within 50 to 80%. For the same compound, in the experiment on cyclin D1, the “CyclinD1 Degradation (200 nM)” value is “B (protein percentage degradation <80%, and >=50%)”.

Take `CC(=O)c1c(C)c2cnc(Nc3ccc(N4CCN(CC(=O)NC(C)CCCCNc5cc(Cl)ccc5C(=O)Nc5ccc(C)c(C6CC6)n5)CC4)cn3)nc2n(C2CCCC2)c1=O` (stereo not drawn) [CPD-379, 2-((5-(2-(4-(6-((6-Acetyl-8-cyclopentyl-5-methyl-7-oxo-7,8-dihydropyrido[2,3-d]pyrimidin-2-yl)amino)pyridin-3-yl)piperazin-1-yl)acetamido)hexyl)amino)-4-chloro-N-(6-cyclopropyl-5-methylpyridin-2-yl)benzamide]: the inhibition at 0.2 µM at CDK4 (Calu-1 cells, 200 nM, 16 hours) fell in the range of 50 to 80%. In the experiment on cyclin D1, the “CyclinD1 Degradation (200 nM)” value is “A (protein percentage degradation >=80%)”.

Consider `CC(=O)c1c(C)c2cnc(Nc3ccc(N4CCN(CCCCCCCCCCCC(=O)Nc5ccccc5C(=O)Nc5nc(C)c(C)s5)CC4)cn3)nc2n(C2CCCC2)c1=O` [CPD-177, 2-(12-(4-(6-((6-Acetyl-8-cyclopentyl-5-methyl-7-oxo-7,8-dihydropyrido[2,3-d]pyrimidin-2-yl)amino)pyridin-3-yl)piperazin-1-yl)dodecanamido)-N-(4,5-dimethylthiazol-2-yl)benzamide], for which, at CDK4 (Calu-1, 16 h), the inhibition at 0.2 µM was below 30%. In the experiment with cyclin D1, the “CyclinD1 Degradation (200 nM)” value was “D (protein percentage degradation <30%)”.

On to `Cc1nc(NC(=O)c2ccccc2NC(=O)CCOCCOCCOCCOCCNC(=O)CN2CCN(c3ccc(Nc4ncc(F)c(-c5cc(F)c6nc(C)n(C(C)C)c6c5)n4)nc3)CC2)sc1C` [CPD-311, N-(4,5-Dimethylthiazol-2-yl)-2-(1-(4-(6-((5-fluoro-4-(4-fluoro-1-isopropyl-2-methyl-1H-benzo[d]imidazol-6-yl)pyrimidin-2-yl)amino)pyridin-3-yl)piperazin-1-yl)-2-oxo-6,9,12,15-tetraoxa-3-azaoctadecan-18-amido)benzamide], for which the inhibition at 10 µM on CDK4 (Calu-1 cells, 10 μM, 16 hours, read-out: CDK4 Degradation (10 μM)) is 30 to 50%. Besides, in the experiment with cyclin D1 (10 μM), the “CyclinD1 Degradation (10 μM)” value was “A (protein percentage degradation >= 80%)”.

Consider `CC(=O)c1c(C)c2cnc(Nc3ccc(N4CCN(CCCCCCCC(=O)Nc5ccccc5C(=O)Nc5ccc(C)cn5)CC4)cn3)nc2n(C2CCCC2)c1=O` [CPD-183, 2-(8-(4-(6-((6-Acetyl-8-cyclopentyl-5-methyl-7-oxo-7,8-dihydropyrido[2,3-d]pyrimidin-2-yl)amino)pyridin-3-yl)piperazin-1-yl)octanamido)-N-(5-methylpyridin-2-yl)benzamide], for which the inhibition at 0.2 µM at CDK4 (Calu-1, 16 h) was below 30%. Further, the “CyclinD1 Degradation (200 nM)” value with cyclin D1 is on record as “D (protein percentage degradation <30%)”.

For `CC(=O)c1c(C)c2cnc(Nc3ccc(N4CCN(CC(=O)NCCOCCOCCC(=O)Nc5ccc(N(C)C)cc5C(=O)Nc5nc(C)c(C)s5)CC4)cn3)nc2n(C2CCCC2)c1=O` [CPD-151, 2-(3-(2-(2-(2-(4-(6-((6-Acetyl-8-cyclopentyl-5-methyl-7-oxo-7,8-dihydropyrido[2,3-d]pyrimidin-2-yl)amino)pyridin-3-yl)piperazin-1-yl)acetamido)ethoxy)ethoxy)propanamido)-5-(dimethylamino)-N-(4,5-dimethylthiazol-2-yl)benzamide], on CDK4 (Calu-1 cells, 200 nM, 16 hours), the inhibition at 0.2 µM fell in the range of 50 to 80%. For the same compound, the “CyclinD1 Degradation (200 nM)” value in the experiment on cyclin D1 is “C (protein percentage degradation <50%, and >=30%)”.

With `CC(=O)c1c(C)c2cnc(Nc3ccc(N4CCN(CC(=O)NCCCCCNc5cccc(C(=O)Nc6nc(C)c(C)s6)c5C)CC4)cn3)nc2n(C2CCCC2)c1=O` [CPD-100, 3-((5-(2-(4-(6-((6-Acetyl-8-cyclopentyl-5-methyl-7-oxo-7,8-dihydropyrido[2,3-d]pyrimidin-2-yl)amino)pyridin-3-yl)piperazin-1-yl)acetamido)pentyl)amino)-N-(4,5-dimethylthiazol-2-yl)-2-methylbenzamide], the inhibition at 0.2 µM on CDK4 (Calu-1 cells, 200 nM, 16 hours) was below 30%. Also, the “CyclinD1 Degradation (200 nM)” value with cyclin D1 was “D (protein percentage degradation <30%)”.

Consider `CC(=O)c1c(C)c2cnc(Nc3ccc(N4CCN(CC(=O)NCCOCCOCCOCCOCCOCCNc5cccc(C(=O)Nc6nc(C)c(C)s6)c5C)CC4)cn3)nc2n(C2CCCC2)c1=O` [CPD-107, 3-((1-(4-(6-((6-Acetyl-8-cyclopentyl-5-methyl-7-oxo-7,8-dihydropyrido[2,3-d]pyrimidin-2-yl)amino)pyridin-3-yl)piperazin-1-yl)-2-oxo-6,9,12,15,18-pentaoxa-3-azaicosan-20-yl)amino)-N-(4,5-dimethylthiazol-2-yl)-2-methylbenzamide], for which, on CDK4 (Calu-1 cells, 200 nM, 16 hours), the inhibition at 0.2 µM was above 80%. In addition, the “CyclinD1 Degradation (200 nM)” value with cyclin D1 is “A (protein percentage degradation >=80%)”.

For `CC(=O)c1c(C)c2cnc(Nc3ccc(N4CCN(CC(=O)NCCOCCOCCC(=O)Nc5ccccc5C(=O)Nc5nc(C(F)(F)F)c(C)s5)CC4)cn3)nc2n(C2CCCC2)c1=O` [CPD-077, 2-(3-(2-(2-(2-(4-(6-((6-Acetyl-8-cyclopentyl-5-methyl-7-oxo-7,8-dihydropyrido[2,3-d]pyrimidin-2-yl)amino)pyridin-3-yl)piperazin-1-yl)acetamido)ethoxy)ethoxy)propanamido)-N-(5-methyl-4-(trifluoromethyl)thiazol-2-yl)benzamide], the inhibition at 0.2 µM at CDK4 (Calu-1 cells, 200 nM, 16 hours) is 50 to 80%. Further, the “CyclinD1 Degradation (200 nM)” value with cyclin D1 is “D (protein percentage degradation <30%)”.

For the compound `CC(=O)c1c(C)c2cnc(Nc3ccc(N4CCN(CC(=O)NCCOCCOCCC(=O)Nc5ccccc5C(=O)Nc5nc(Br)c(C)s5)CC4)cn3)nc2n(C2CCCC2)c1=O` [CPD-071, 2-(3-(2-(2-(2-(4-(6-((6-Acetyl-8-cyclopentyl-5-methyl-7-oxo-7,8-dihydropyrido[2,3-d]pyrimidin-2-yl)amino)pyridin-3-yl)piperazin-1-yl)acetamido)ethoxy)ethoxy)propanamido)-N-(4-bromo-5-methylthiazol-2-yl)benzamide], the inhibition at 0.2 µM on CDK4 (Calu-1 cells, 200 nM, 16 hours) was above 80%. Besides, the “CyclinD1 Degradation (200 nM)” value in the experiment with cyclin D1 is given as “A (protein percentage degradation >=80%)”.

As to `CC(=O)c1c(C)c2cnc(Nc3ccc(N4CCN(CC(=O)NCCOCCOCCC(=O)Nc5cc(Cl)ccc5C(=O)Nc5nc(C)c(C)s5)CC4)cn3)nc2n(C2CCCC2)c1=O` [CPD-140, 2-(3-(2-(2-(2-(4-(6-((6-Acetyl-8-cyclopentyl-5-methyl-7-oxo-7,8-dihydropyrido[2,3-d]pyrimidin-2-yl)amino)pyridin-3-yl)piperazin-1-yl)acetamido)ethoxy)ethoxy)propanamido)-4-chloro-N-(4,5-dimethylthiazol-2-yl)benzamide], the inhibition at 0.2 µM on CDK4 (Calu-1 cells, 200 nM, 16 hours) lay within 50 to 80%. In the experiment on cyclin D1, the “CyclinD1 Degradation (200 nM)” value is reported as “A (protein percentage degradation >=80%)”.
